Consider two compounds from patent publication US20090238808A1, “Process for the identification of novel enzyme interacting compounds” (priority 2005, published 2009).

The target of one test is FAK/PTK2 (Homo sapiens, UniProt Q05397). Briefly: Biochemical kinase activity assay (Invitrogen SelectScreen). The note with it: read-out: % inhibition, FAK.
A further test deals with EphB4 (Homo sapiens, UniProt P54760). The description is as above. The note with it: read-out: % inhibition, EphB4.
In the next test the target is BTK (Homo sapiens, UniProt Q06187). The test is described as above. The note with it: read-out: % inhibition, BTK.
Test [1] relates to phosphorylation sites on kinobeads-captured proteins, K562 cells. Description: Phosphorylation analysis of kinobeads-captured proteins from drug-treated K562 cells. The test is classed as cell-based, human. The note with it: of 379 sites on 136 proteins identified. From the text:
To explore not only the direct targets of the drugs but also their downstream effects on signaling pathways, aliquots of the iTRAQ-labeled peptide mixtures from kinobeads precipitates were subjected to phosphopeptide enrichment and subsequent identification and quantification by mass spectrometry. […] Indeed, most of these proteins have been implicated in signaling events downstream of ABL (FIG. 10b)^16, 18. For all three drugs together, we found down-regulation of 20 sites on 13 proteins (FIGS. 22 and 23).
Mass Spectrometry and Data analysis.
LC-MS/MS for IMAC samples were performed twice.

The next test concerns the target FER (Homo sapiens, UniProt P16591). Briefly: Biochemical kinase activity assay (Invitrogen SelectScreen). The note with it: read-out: % inhibition, FER.
A further test concerns the target GCK (Homo sapiens, UniProt Q12851). The description is as above. The following applies: read-out: % inhibition, GCK.
In another test the target is T1, MER (Homo sapiens, UniProt Q12866).
T1 sequence (Q12866 21-999): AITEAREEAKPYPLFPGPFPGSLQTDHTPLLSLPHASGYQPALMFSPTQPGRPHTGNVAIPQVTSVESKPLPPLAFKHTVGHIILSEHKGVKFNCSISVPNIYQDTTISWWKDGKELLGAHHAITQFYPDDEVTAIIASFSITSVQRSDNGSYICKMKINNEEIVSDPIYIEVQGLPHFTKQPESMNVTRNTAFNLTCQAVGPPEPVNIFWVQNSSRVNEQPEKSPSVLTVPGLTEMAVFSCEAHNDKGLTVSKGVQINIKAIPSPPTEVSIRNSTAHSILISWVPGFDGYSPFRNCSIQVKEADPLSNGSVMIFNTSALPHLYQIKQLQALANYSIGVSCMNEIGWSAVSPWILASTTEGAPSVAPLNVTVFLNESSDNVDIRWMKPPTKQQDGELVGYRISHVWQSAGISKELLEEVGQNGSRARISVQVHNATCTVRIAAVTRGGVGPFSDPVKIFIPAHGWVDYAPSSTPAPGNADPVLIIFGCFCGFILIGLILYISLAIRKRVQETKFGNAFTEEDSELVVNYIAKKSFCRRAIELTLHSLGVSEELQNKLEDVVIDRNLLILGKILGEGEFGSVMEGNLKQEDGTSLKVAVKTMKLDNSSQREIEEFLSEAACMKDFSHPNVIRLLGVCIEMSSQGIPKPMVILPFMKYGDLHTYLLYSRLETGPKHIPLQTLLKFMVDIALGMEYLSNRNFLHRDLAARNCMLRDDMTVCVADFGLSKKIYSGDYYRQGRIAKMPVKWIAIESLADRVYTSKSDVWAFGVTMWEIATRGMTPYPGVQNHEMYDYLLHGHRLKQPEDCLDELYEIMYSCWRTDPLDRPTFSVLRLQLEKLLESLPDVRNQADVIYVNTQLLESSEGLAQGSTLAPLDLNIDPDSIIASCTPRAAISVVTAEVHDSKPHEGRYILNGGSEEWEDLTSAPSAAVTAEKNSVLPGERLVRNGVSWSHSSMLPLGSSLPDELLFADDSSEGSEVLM
The description is as above.

The next test has as its target KHS1 (Homo sapiens, UniProt Q9Y4K4). The description is as above. The note with it: read-out: % inhibition, KHS1.
A further test addresses T2, DDR2 (Homo sapiens, UniProt Q16832).
T2 construct: purchased Upstate (IC50Profiler Express service)
Briefly: Biochemical kinase activity assay (Upstate IC50Profiler Express). The note with it: Upstate IC50Profiler Express service.

In the next test the target is CSK (Homo sapiens, UniProt P41240). The note with it: purified kinase; published data; cited from earlier work.
Sequence of CSK (P41240 whole entry, species assumed): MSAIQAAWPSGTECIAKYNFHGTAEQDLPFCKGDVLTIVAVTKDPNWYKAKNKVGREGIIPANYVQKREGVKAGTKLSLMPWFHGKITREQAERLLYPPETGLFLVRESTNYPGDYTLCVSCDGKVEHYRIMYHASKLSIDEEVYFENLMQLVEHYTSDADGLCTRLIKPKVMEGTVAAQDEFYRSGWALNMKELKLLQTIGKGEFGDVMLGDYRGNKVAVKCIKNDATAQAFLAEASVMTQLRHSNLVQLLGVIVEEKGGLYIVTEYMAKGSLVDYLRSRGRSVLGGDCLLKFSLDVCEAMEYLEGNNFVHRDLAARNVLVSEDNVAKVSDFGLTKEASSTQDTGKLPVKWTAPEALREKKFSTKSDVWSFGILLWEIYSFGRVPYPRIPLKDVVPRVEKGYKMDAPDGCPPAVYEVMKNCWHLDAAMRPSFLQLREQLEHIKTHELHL

Sequence of BTK (Q06187 whole entry): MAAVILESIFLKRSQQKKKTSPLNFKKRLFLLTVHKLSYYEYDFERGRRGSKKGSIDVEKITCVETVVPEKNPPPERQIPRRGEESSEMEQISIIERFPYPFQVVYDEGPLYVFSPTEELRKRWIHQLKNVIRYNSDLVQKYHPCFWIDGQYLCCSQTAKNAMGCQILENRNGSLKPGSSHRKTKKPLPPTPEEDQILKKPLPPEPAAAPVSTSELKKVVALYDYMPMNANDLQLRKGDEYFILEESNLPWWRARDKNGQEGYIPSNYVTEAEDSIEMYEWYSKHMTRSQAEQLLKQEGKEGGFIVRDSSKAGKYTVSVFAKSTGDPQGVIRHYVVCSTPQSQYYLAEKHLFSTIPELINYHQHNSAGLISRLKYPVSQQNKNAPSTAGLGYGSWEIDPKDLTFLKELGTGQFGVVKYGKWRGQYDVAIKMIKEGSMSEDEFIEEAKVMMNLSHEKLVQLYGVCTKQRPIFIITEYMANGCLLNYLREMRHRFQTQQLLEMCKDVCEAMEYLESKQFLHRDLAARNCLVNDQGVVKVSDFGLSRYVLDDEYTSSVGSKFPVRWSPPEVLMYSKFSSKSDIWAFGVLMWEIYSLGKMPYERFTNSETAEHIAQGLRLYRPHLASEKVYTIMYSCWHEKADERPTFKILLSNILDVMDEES
Sequence of FAK/PTK2 (Q05397 whole entry): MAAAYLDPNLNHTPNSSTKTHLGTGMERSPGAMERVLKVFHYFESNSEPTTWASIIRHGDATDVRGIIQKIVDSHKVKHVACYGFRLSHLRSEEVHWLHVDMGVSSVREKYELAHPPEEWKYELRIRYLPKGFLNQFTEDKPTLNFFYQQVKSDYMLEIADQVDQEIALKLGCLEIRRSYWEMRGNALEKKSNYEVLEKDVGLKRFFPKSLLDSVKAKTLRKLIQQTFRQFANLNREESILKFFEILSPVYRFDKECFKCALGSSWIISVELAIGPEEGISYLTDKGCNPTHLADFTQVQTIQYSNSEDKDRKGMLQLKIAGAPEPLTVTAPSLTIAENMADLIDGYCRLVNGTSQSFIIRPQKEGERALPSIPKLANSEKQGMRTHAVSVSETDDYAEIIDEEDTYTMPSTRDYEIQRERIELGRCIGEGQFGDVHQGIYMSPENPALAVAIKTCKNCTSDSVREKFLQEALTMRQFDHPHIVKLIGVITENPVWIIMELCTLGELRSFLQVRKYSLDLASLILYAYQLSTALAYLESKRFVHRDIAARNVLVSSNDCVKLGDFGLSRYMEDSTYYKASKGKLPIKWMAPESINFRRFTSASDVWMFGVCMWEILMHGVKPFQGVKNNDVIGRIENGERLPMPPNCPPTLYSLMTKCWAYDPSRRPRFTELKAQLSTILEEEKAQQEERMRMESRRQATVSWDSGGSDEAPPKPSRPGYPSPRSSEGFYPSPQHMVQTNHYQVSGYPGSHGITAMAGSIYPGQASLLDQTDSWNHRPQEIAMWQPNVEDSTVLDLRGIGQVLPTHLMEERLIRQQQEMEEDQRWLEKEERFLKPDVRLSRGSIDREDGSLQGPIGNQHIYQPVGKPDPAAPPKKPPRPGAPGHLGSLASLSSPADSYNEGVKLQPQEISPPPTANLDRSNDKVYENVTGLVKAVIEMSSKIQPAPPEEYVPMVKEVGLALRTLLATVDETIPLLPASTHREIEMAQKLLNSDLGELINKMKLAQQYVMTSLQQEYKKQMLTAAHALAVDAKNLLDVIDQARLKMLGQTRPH
Sequence of KHS1 (Q9Y4K4 whole entry): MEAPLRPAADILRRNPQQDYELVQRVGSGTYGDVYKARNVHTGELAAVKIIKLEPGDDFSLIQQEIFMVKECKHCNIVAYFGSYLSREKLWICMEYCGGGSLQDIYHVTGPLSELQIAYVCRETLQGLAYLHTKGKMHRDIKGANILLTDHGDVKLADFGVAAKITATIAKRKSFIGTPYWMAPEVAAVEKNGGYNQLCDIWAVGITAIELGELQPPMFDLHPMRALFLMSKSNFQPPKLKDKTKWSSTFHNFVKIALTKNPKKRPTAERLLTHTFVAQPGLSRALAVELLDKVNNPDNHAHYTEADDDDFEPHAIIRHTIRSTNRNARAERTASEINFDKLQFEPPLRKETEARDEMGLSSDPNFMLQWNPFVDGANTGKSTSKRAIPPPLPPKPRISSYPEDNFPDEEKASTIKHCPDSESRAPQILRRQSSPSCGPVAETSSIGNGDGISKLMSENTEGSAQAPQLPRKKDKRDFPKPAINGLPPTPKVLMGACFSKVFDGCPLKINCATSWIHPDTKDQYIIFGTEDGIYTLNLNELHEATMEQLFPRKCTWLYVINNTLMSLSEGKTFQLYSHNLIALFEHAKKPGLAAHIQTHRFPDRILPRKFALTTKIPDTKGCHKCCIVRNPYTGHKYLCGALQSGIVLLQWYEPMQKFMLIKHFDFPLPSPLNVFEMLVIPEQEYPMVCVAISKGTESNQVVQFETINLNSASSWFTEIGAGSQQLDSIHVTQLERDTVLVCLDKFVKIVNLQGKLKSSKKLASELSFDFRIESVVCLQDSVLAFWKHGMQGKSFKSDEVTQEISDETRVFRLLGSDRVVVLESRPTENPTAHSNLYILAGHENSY
Sequence of EphB4 (P54760 16-987): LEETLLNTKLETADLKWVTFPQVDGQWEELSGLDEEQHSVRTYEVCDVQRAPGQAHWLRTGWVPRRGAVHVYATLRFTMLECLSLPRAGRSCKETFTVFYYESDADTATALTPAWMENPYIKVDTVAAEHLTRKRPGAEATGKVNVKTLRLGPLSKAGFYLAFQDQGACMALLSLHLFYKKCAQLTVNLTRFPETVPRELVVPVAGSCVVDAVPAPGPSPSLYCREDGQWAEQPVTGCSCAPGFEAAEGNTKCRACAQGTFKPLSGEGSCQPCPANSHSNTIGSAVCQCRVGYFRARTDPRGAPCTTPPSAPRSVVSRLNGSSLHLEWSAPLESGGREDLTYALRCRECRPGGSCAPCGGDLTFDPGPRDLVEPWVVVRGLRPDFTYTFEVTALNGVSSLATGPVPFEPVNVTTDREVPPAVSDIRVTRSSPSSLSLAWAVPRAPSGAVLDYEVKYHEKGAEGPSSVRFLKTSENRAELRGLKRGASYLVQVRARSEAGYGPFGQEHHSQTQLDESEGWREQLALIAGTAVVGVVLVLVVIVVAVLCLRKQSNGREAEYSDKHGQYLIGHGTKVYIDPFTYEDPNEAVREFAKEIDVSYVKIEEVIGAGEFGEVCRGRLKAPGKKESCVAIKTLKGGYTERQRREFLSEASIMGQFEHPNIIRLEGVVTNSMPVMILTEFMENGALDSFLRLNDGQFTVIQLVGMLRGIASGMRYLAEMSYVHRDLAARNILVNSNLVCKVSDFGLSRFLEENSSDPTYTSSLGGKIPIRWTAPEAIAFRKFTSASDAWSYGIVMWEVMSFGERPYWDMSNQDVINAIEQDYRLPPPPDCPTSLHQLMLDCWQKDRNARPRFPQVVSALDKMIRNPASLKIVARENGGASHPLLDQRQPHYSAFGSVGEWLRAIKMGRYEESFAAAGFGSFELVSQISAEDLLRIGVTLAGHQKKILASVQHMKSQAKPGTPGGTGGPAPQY
T2 sequence (Q16832 22-855): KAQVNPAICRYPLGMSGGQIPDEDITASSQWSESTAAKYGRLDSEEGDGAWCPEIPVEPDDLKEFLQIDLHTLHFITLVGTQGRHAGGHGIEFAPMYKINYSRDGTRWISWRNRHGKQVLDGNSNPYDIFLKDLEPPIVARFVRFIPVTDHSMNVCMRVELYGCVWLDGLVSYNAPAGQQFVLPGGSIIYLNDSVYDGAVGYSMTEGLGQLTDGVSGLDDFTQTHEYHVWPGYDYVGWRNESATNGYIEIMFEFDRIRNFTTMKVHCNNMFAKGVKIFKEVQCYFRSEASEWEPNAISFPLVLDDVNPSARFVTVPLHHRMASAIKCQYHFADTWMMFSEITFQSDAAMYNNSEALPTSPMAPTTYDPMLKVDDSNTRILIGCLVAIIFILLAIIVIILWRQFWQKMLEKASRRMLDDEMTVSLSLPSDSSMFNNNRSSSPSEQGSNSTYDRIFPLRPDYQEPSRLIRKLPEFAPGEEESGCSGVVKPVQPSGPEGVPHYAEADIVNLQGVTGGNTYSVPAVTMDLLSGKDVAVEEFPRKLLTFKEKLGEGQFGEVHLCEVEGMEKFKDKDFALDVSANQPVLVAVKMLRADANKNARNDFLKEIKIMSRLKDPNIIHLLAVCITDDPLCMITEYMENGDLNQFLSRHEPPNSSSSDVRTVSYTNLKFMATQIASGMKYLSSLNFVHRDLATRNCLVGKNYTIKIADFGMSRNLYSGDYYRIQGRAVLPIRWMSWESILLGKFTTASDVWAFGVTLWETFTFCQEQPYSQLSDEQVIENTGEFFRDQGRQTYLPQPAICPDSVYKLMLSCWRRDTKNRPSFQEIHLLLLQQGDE

In general, inhibition refers to how much of the control response was suppressed. For the compound `Cc1ccc(NC(=O)c2ccc(CN3CCN(C)CC3)cc2)cc1Nc1nccc(-c2cccnc2)n1` [imatinib], the inhibition at 5 µM at FAK/PTK2 is 2%; on EphB4, 5%; on BTK, 4%; at FER it was 14%; at GCK, 10%; at MER (read-out: % inhibition, MER) it was 11%. Besides, at KHS1, the inhibition at 5 µM amounted to 14%. Also, the “number of phosphorylation sites with substantial down-regulation” value in test [1] is recorded as “Eight”.

In general, IC50 refers to the point on the concentration scale where inhibition reaches its midpoint. Consider `COc1cc(Nc2c(C#N)cnc3cc(OCCCN4CCN(C)CC4)c(OC)cc23)c(Cl)cc1Cl` [bosutinib], for which the results for the IC50 against DDR2, at CSK and against MER were 4900 nM, 310 nM and 15.7 nM, respectively.
